From publication PMC8413292, “Small-molecule polymerase inhibitor protects non-human primates from measles and reduces shedding” (Nature Communications, 2021)
Several values for one entry are separate records, joined by “and”; a condition that tells them apart may be missing. Equal values may be shown once.

Experiments:
MeV N gene RNA = test: Quantitative RT-PCR of MeV N RNA in PBMCs; format: in vivo
Procedure: Organs (21 days post-infection) and PBMCs (twice a week) were frozen in RNAlater (Qiagen) at −80 °C until further processing. For the deceased animal, organs were frozen in RNAlater at the day of death. Lymph nodes were thawed on ice, transferred to TRIzol (ambion life technologies) and homogenized using a tissue homogenizer. Total RNA of lymph nodes and PBMCs was extracted following the TRIzol manufacturer’s protocol. RNA (1000 ng for lymph nodes; 110 ng for PBMCs) was then subjected to reverse transcription using random hexamer primers and Superscript III reverse transcriptase in accordance with the manufacturer’s protocols. Subsequent quantitative PCR (qPCR) was carried out using primer pairs specific for a fragment in the MeV N gene[23] or GAPDH gene(Supplementary Table 2) and the PowerUp SYBR Green Master Mix (Thermo Fisher Scientific) in an Applied Biosystems 7500 Real-Time PCR system. Samples were normalized for GAPDH. The comparative (ΔΔCt) Ct method was applied to determine relative amounts of N-encoding RNA present in samples from treated animals compared to those obtained from untreated control animals (lymph nodes) or compared to those obtained from untreated control animals on day 7 post-infection (peak PBMC virus titer).

[1] = system: canine distemper virus (CDV); conditions: lethal CDV-ferret model; cited from earlier work
[2] = Body weight of squirrel monkeys during the efficacy study; format: in vivo, squirrel monkeys (Saimiri sciureus); conditions: all animals throughout the study
Procedure: All animal experiments were carried out in compliance with the regulations of German animal protection laws and authorized by the Regierungspräsidium Darmstadt, Germany (Dezernat V54 – Veterinärwesen und Verbraucherschutz, Hilpertstrasse 31, 64295 Darmstadt). Adult male and female squirrel monkeys (Saimiri sciureus) were obtained from BioPRIM, 31450 Baziege, or CNRS 0846 Primatologie, 13790 Rousset, France. Each experimental group was housed in a separate room, and animals of the same sex were caged together within the respective groups. For the single-dose pharmacokinetic experiment, animals were anesthetized, and the drug was given through a stomach tube at a concentration of 50 mg/kg bodyweight. Blood samples were collected after 15, 30, and 60 min, and 2, 3, 6, and 24 h. For efficacy assessment, groups of 6 animals were left untreated or treated with 50 mg/kg of ERDRP-0519 twice daily for two weeks, starting either 12 h before or 3 or 7 days after intranasal infection with 10^6 TCID50 of MV/FrankfurtMain.DEU/17.11. Clinical signs, rectal temperature, and weight were recorded daily, and throat swabs and blood samples were collected before infection and twice weekly thereafter. On day 21 post-infection, the animals were euthanized, necropsied, and samples were collected for histological analysis.

With `Cn1nc(C(F)(F)F)cc1C(=O)Nc1ccc(S(=O)(=O)N2CCCC[C@H]2CCN2CCOCC2)cc1` [ERDRP-0519] the “Supplemental Figure 3a source data, relative MeV N RNA in PBMCs, individual animals” value (MeV N gene RNA; therapeutic (d3), time (d) 3) was -13.2368 and -9.809 and -12.089 and -11.8661 and -12.6935 and -12.7459, the “Supplemental Figure 3a source data, relative MeV N RNA in PBMCs, individual animals” value (MeV N gene RNA; therapeutic (d3), time (d) 7) was -6.7874 and -7.787 and -8.103 and -8.648 and -13.5153 and -10.39 and the “Supplemental Figure 3a source data, relative MeV N RNA in PBMCs, individual animals” value (MeV N gene RNA; therapeutic (d3), time (d) 10) was -4.115 and -10.1748 and -9.33 and -8.711 and -14.231 and -9.172. The “Supplemental Figure 3a source data, relative MeV N RNA in PBMCs, individual animals” value (MeV N gene RNA; therapeutic (d3), time (d) 14) was -9.809 and -12.4589 and -12.5095 and -12.5754 and -8.538 and -13.3167, the “Supplemental Figure 3a source data, relative MeV N RNA in PBMCs, individual animals” value (MeV N gene RNA; therapeutic (d3), time (d) 17) was -10.29 and -10.5346 and -12.5229 and -11.5387 and -13.4468 and the “Supplemental Figure 3a source data, relative MeV N RNA in PBMCs, individual animals” value (MeV N gene RNA; therapeutic (d3), time (d) 21) was -15.6913 and -17.4162 and -8.965 and -9.87 and -13.3809. The “Supp. Figure 3a, relative MeV N RNA in PBMCs, group mean (Mean 2)” value (MeV N gene RNA; therapeutic (d7), Day 0) was -11.48, the “Supp. Figure 3a, relative MeV N RNA in PBMCs, group mean (Mean 2)” value (MeV N gene RNA; therapeutic (d7), Day 3) was -11.42 and the “Supp. Figure 3a, relative MeV N RNA in PBMCs, group mean (Mean 2)” value (MeV N gene RNA; therapeutic (d7), Day 7) was -3.189. For the same molecule, the “Supp. Figure 3a, relative MeV N RNA in PBMCs, group mean (Mean 2)” value (MeV N gene RNA; therapeutic (d7), Day 10) was -4.318, the “Supp. Figure 3a, relative MeV N RNA in PBMCs, group mean (Mean 2)” value (MeV N gene RNA; therapeutic (d7), Day 14) was -7.135 and the “Supp. Figure 3a, relative MeV N RNA in PBMCs, group mean (Mean 2)” value (MeV N gene RNA; therapeutic (d7), Day 17) was -8.639. For the same molecule, the “Supp. Figure 3a, relative MeV N RNA in PBMCs, group mean (Mean 2)” value (MeV N gene RNA; therapeutic (d7), Day 21) was -9.558, the “Supplemental Figure 3a source data, relative MeV N RNA in PBMCs, individual animals” value (MeV N gene RNA; therapeutic (d7), time (d) 0) was -14.3685 and -13.0066 and -11.8077 and -7.512 and -11.9115 and -10.2528 and the “Supplemental Figure 3a source data, relative MeV N RNA in PBMCs, individual animals” value (MeV N gene RNA; therapeutic (d7), time (d) 3) was -13.8644 and -13.9177 and -9.909 and -10.1407 and -11.3735 and -9.308. The “Supplemental Figure 3a source data, relative MeV N RNA in PBMCs, individual animals” value (MeV N gene RNA; therapeutic (d7), time (d) 7) was -0.7497 and -4.549 and -6.525 and -1.948 and -0.04871 and -5.313, the “Supplemental Figure 3a source data, relative MeV N RNA in PBMCs, individual animals” value (MeV N gene RNA; therapeutic (d7), time (d) 10) was -4.45 and the “Supp. Figure 3a, relative MeV N RNA in PBMCs, Mean Diff.” value (MeV N gene RNA; untreated vs. prophylactic, Day 0) was -1.268. For the same molecule, the “Supp. Figure 3a, relative MeV N RNA in PBMCs, Mean Diff.” value (MeV N gene RNA; untreated vs. prophylactic, Day 3) was 0.4295, the “Supp. Figure 3a, relative MeV N RNA in PBMCs, Mean Diff.” value (MeV N gene RNA; untreated vs. prophylactic, Day 7) was 11.48 and the “Supp. Figure 3a, relative MeV N RNA in PBMCs, Mean Diff.” value (MeV N gene RNA; untreated vs. prophylactic, Day 10) was 11.3. For the same molecule, the “Supp. Figure 3a, relative MeV N RNA in PBMCs, Mean Diff.” value (MeV N gene RNA; untreated vs. prophylactic, Day 14) was 6.945, the “Supp. Figure 3a, relative MeV N RNA in PBMCs, Mean Diff.” value (MeV N gene RNA; untreated vs. prophylactic, Day 17) was 2.967 and the “Supp. Figure 3a, relative MeV N RNA in PBMCs, Mean Diff.” value (MeV N gene RNA; untreated vs. prophylactic, Day 21) was 0.4094. The “Supp. Figure 3a, relative MeV N RNA in PBMCs, Mean Diff.” value (MeV N gene RNA; untreated vs. therapeutic (d3), Day 0) was -0.325, the “Supp. Figure 3a, relative MeV N RNA in PBMCs, Mean Diff.” value (MeV N gene RNA; untreated vs. therapeutic (d3), Day 3) was 0.4421 and the “Supp. Figure 3a, relative MeV N RNA in PBMCs, Mean Diff.” value (MeV N gene RNA; untreated vs. therapeutic (d3), Day 7) was 9.205. The “Supp. Figure 3a, relative MeV N RNA in PBMCs, Mean Diff.” value (MeV N gene RNA; untreated vs. therapeutic (d3), Day 10) was 8.257, the “Supp. Figure 3a, relative MeV N RNA in PBMCs, Mean Diff.” value (MeV N gene RNA; untreated vs. therapeutic (d3), Day 14) was 5.316 and the “Supp. Figure 3a, relative MeV N RNA in PBMCs, Mean Diff.” value (MeV N gene RNA; untreated vs. therapeutic (d3), Day 17) was 3.169. For the same molecule, the “Supp. Figure 3a, relative MeV N RNA in PBMCs, Mean Diff.” value (MeV N gene RNA; untreated vs. therapeutic (d3), Day 21) was 3.351, the “Supp. Figure 3a, relative MeV N RNA in PBMCs, Mean Diff.” value (MeV N gene RNA; untreated vs. therapeutic (d7), Day 0) was -2.049 and the “Supp. Figure 3a, relative MeV N RNA in PBMCs, Mean Diff.” value (MeV N gene RNA; untreated vs. therapeutic (d7), Day 3) was -0.2124. The “Supp. Figure 3a, relative MeV N RNA in PBMCs, Mean Diff.” value (MeV N gene RNA; untreated vs. therapeutic (d7), Day 7) was 3.189, the “Supp. Figure 3a, relative MeV N RNA in PBMCs, Mean Diff.” value (MeV N gene RNA; untreated vs. therapeutic (d7), Day 10) was 3.285 and the “Supp. Figure 3a, relative MeV N RNA in PBMCs, Mean Diff.” value (MeV N gene RNA; untreated vs. therapeutic (d7), Day 14) was 0.916. The “Supp. Figure 3a, relative MeV N RNA in PBMCs, Mean Diff.” value (MeV N gene RNA; untreated vs. therapeutic (d7), Day 17) was 0.1414, the “Supp. Figure 3a, relative MeV N RNA in PBMCs, Mean Diff.” value (MeV N gene RNA; untreated vs. therapeutic (d7), Day 21) was -0.1552 and the “survival after post-exposure therapeutic dosing” value [1] was “complete survival of all treated animals”. The Body weight changes [2] was “negligible”.
